Tests used:
cocci, rods and fungi = details: Pernak et al., 226th ACS National Meeting 2003; cited from earlier work
Escherichia coli = test: Microbicidal activity according to EN1040; type: cell-based; details: 1000 ppm, room temperature, vs growth control in water
Protocol: (§1) A bacterial suspension with a cell count of about 10^7 cfu/ml is contacted with appropriate concentrations of the specific substances and the residual cell count determined after incubation times of 5 and 30 minutes at room temperature under continuous stirring. Staphylococcus aureus was tested as gram+ and Escherichia coli as gram− organism. The results are given as a log reduction in comparison to a growth control in water.

Staphylococcus aureus = test: Microbicidal activity according to EN1040; type: cell-based; details: 1000 ppm, room temperature, vs growth control in water
Protocol: as §1

A. niger ATCC 16404 = test: Microbicidal activity under conditions similar to a preservative challenge test; type: cell-based; details: 0.5%, inoculum 10^5 cfu/ml
Protocol: as §1
(§2) The test procedure of Example 7 is used, with an inoculum concentration of 10^5 cfu/ml and incubation times of 48 and 72 hours; figures given as log reduction.

C. albicans ATCC 10231 = test: as above; type: cell-based; details: 0.5%, inoculum 10^5 cfu/ml
Protocol: as §1, §2

E. coli ATCC 10536 = test: as above; type: cell-based; details: 0.5%, inoculum 10^5 cfu/ml
Protocol: as §1, §2

P. aeruginosa ATCC 15442 = test: as above; type: cell-based; details: 0.5%, inoculum 10^5 cfu/ml
Protocol: as §1, §2

S. aureus ATCC 6538 = test: as above; type: cell-based; details: 0.5%, inoculum 10^5 cfu/ml
Protocol: as §1, §2

Aspergillus niger = test: Fungicidal activity according to EN12175; type: cell-based; details: spores about 10^6 cfu/ml, vs water control
Protocol: (§3) Fungicidal activity is tested according to EN12175. A fungal spore suspension with a spore cell count of about 10^6 cfu/ml is contacted with appropriate concentrations of the specific substances and the residual spore cell count determined after incubation times of 30 and 60 minutes at room temperature under continuous stirring. Penicillium funiculosum, Aspergillus niger and Aureobasidium pullulans are tested as important mold strains. The results are given as a log reduction at each incubation time in comparison to a water control.

Aureobasidium pullulans = test: Fungicidal activity according to EN12175; type: cell-based; details: spores about 10^6 cfu/ml, vs water control
Protocol: as §3

Penicillium funiculosum = test: Fungicidal activity according to EN12175; type: cell-based; details: spores about 10^6 cfu/ml, vs water control
Protocol: as §3

A. niger = test: Preservative challenge test in cosmetic emulsions (EurPh and USP); type: cell-based; details: 0.5% w/w
Protocol: (§4) A preservative challenge test is conducted for representative cosmetic formulations according to the conditions of the EurPh and USP. The compound concentration in the formulations is 0.5% w/w. The Inoculum concentration of the five different strains is 2.1-4.2×10^5 cfu/ml, incubation time according to EurPh. 2, 7, 14 and 28 days. Preservation is investigated in two different emulsion types, w/o and o/w.

C. albicans = test: as above; type: cell-based; details: 0.5% w/w
Protocol: as §4

E. coli = test: as above; type: cell-based; details: 0.5% w/w
Protocol: as §4

P. aerug. = test: as above; type: cell-based; details: 0.5% w/w
Protocol: as §4

S. aureus = test: as above; type: cell-based; details: 0.5% w/w
Protocol: as §4

CCCCCCCCOC[n+]1ccn(C)c1.F[B-](F)(F)F [1-methyl-3-octyloxymethylimidazolium tetrafluoroborate]
effectiveness against cocci, rods and fungi (cocci, rods and fungi): the most effective of the ionic liquids tested

CCCCCCCCOC(=O)C[n+]1ccn(C)c1.[Br-] [Ex 2, 1-methyl-3-(2-oxo-2-octyloxyethyl)-1H-Imidazolium bromide]
log reduction E. coli 5 min. (Escherichia coli; 5 min): <1 log | log reduction E. coli 30 min. (Escherichia coli; 30 min): 1.2 log | log reduction S. aureus 5 min. (Staphylococcus aureus; 5 min): 3.2 log | log reduction S. aureus 30 min. (Staphylococcus aureus; 30 min): 3.7 log | log reduction A. niger ATCC 16404 48 h (A. niger ATCC 16404; 48 h): 1.8 log | log reduction A. niger ATCC 16404 72 h (A. niger ATCC 16404; 72 h): 2.3 log | log reduction C. albicans ATCC 10231 48 h (C. albicans ATCC 10231; 48 h): >3 log | log reduction C. albicans ATCC 10231 72 h (C. albicans ATCC 10231; 72 h): >3 log | log reduction E. coli ATCC 10536 48 h (E. coli ATCC 10536; 48 h): >3 log | log reduction E. coli ATCC 10536 72 h (E. coli ATCC 10536; 72 h): >3 log | log reduction P. aeruginosa ATCC 15442 48 h (P. aeruginosa ATCC 15442; 48 h): >3 log | log reduction P. aeruginosa ATCC 15442 72 h (P. aeruginosa ATCC 15442; 72 h): >3 log | log reduction S. aureus ATCC 6538 48 h (S. aureus ATCC 6538; 48 h): >3 log | log reduction S. aureus ATCC 6538 72 h (S. aureus ATCC 6538; 72 h): >3 log | log reduction A. niger 30 min (Aspergillus niger; 1%, 30 min): <1 log | log reduction A. niger 1 h (Aspergillus niger; 1 h): 2.0 log | log reduction A. pullulans 30 min (Aureobasidium pullulans; 1%, 30 min): >4 log | log reduction A. pullulans 1 h (Aureobasidium pullulans; 1 h): >4 log | log reduction P. funiculosum 30 min (Penicillium funiculosum; 1%, 30 min): <1 log | log reduction P. funiculosum 1 h (Penicillium funiculosum; 1 h): <1 log | Log Reduction A. niger (A. niger; O/W emulsion, 2 days): 0 log | Log Reduction A. niger (A. niger; O/W emulsion, 7 days): 0 log | Log Reduction A. niger (A. niger; O/W emulsion, 14 days): 0 log | Log Reduction A. niger (A. niger; O/W emulsion, 28 days): 0 log | Log Reduction A. niger (A. niger; W/O emulsion, 2 days): 0 log | Log Reduction A. niger (A. niger; W/O emulsion, 7 days): 0 log | Log Reduction A. niger (A. niger; W/O emulsion, 14 days): 0 log | Log Reduction A. niger (A. niger; W/O emulsion, 28 days): 0 log | Log Reduction C. albicans (C. albicans; O/W emulsion, 2 days): 0 log | Log Reduction C. albicans (C. albicans; O/W emulsion, 7 days): 2 log | Log Reduction C. albicans (C. albicans; O/W emulsion, 14 days): ≧3 log | Log Reduction C. albicans (C. albicans; O/W emulsion, 28 days): 5 log | Log Reduction C. albicans (C. albicans; W/O emulsion, 2 days): 1 log | Log Reduction C. albicans (C. albicans; W/O emulsion, 7 days): ≧3 log | Log Reduction C. albicans (C. albicans; W/O emulsion, 14 days): 5 log | Log Reduction C. albicans (C. albicans; W/O emulsion, 28 days): 5 log | Log Reduction E. coli (E. coli; O/W emulsion, 2 days): 3 log | Log Reduction E. coli (E. coli; O/W emulsion, 7 days): ≧4 log | Log Reduction E. coli (E. coli; O/W emulsion, 14 days): 6 log | Log Reduction E. coli (E. coli; O/W emulsion, 28 days): 6 log | Log Reduction E. coli (E. coli; W/O emulsion, 2 days): 6 log | Log Reduction E. coli (E. coli; W/O emulsion, 7 days): 6 log | Log Reduction E. coli (E. coli; W/O emulsion, 14 days): 6 log | Log Reduction E. coli (E. coli; W/O emulsion, 28 days): 6 log | Log Reduction P. aerug. (P. aerug.; O/W emulsion, 2 days): ≧4 log | Log Reduction P. aerug. (P. aerug.; O/W emulsion, 7 days): 5 log | Log Reduction P. aerug. (P. aerug.; O/W emulsion, 14 days): 5 log | Log Reduction P. aerug. (P. aerug.; O/W emulsion, 28 days): 5 log | Log Reduction P. aerug. (P. aerug.; W/O emulsion, 2 days): 5 log | Log Reduction P. aerug. (P. aerug.; W/O emulsion, 7 days): 5 log | Log Reduction P. aerug. (P. aerug.; W/O emulsion, 14 days): 5 log | Log Reduction P. aerug. (P. aerug.; W/O emulsion, 28 days): 5 log | Log Reduction S. aureus (S. aureus; O/W emulsion, 2 days): ≧4 log | Log Reduction S. aureus (S. aureus; O/W emulsion, 7 days): 6 log | Log Reduction S. aureus (S. aureus; O/W emulsion, 14 days): 6 log | Log Reduction S. aureus (S. aureus; O/W emulsion, 28 days): 6 log | Log Reduction S. aureus (S. aureus; W/O emulsion, 2 days): 6 log | Log Reduction S. aureus (S. aureus; W/O emulsion, 7 days): 6 log | Log Reduction S. aureus (S. aureus; W/O emulsion, 14 days): 6 log | Log Reduction S. aureus (S. aureus; W/O emulsion, 28 days): 6 log
